# From patent publication EP0063381A1, “Pyrazolo(3-4-d) pyrimidines, process for their preparation and pharmaceutical compositions containing them” (Byk Gulden Lomberg Chemische Fabrik GmbH, priority 1981, dated 1982)
# Read-outs that look alike come from different tables or passages of the source.
# What was measured:
# [1] = tested on: Rinderherz PDE "Boehringer"; assay: Inhibition of phosphodiesterase (PDE), substrate cAMP; format: biochemical, Rind; details: compound 0,2 mM; substrate cAMP 0,15 mM; Rinderherz PDE in Glycerin; 200 µM
# Protocol: Die Tabelle 1. gibt die gefundenen Werte der Hemmung der Phosphodiesterase (PDE) an. Es wurde Rinderherz PDE "Boehringer" in Glycerin und als Substrat cAMP (0,15 mM) verwendet. Die Konzentration der untersuchten Verbindungen war 0,2 mM.
# [2] = tested on: durch Methanol hervorgerufene Retinaschädigung; assay: Retinotropic effect measured on the mouse electroretinogram (antagonism of methanol-induced retinal damage); format: in vivo, Maus; details: for Retinotrope Wirkung [%]: Elektroretinogramm der Maus; for retinotrope Wirkung (in words): in the dose range in which the compounds of the invention were tested
# From the text: Die Versuchsmethodik ist bei K.K.Gauri und W.Hohl, Der Augenspiegel, 1979 (Heft 9), und […] Referenzen beschrieben.
# [3] = tested on: Trachealspangen-Kette des Meerschweinchens; assay: Relaxation of the spontaneously contracted guinea pig tracheal ring chain in vitro (organ bath); design: species or system Meerschweinchen; details: for Relative Wirkungsstärke (Theophyllin=1,00): relative to Theophyllin, from ED50 of tracheal relaxation; for EC50: relaxation as fraction of maximum by (-)Isoprenalin 10^-6 mol/l, cumulative concentrations, 37°C, read-out: ED50 (Dosis der halbmaximal möglichen Relaxation)
# Protocol: Weiterhin wurde die relaxierende Wirkung erfindungsgemäBer Verbindungen auf die Trachealspangen-Kette des Meerschweinchens in vitro geprüft:
# Vier parallele, aus jeweils 6 Einzelringen bestehende Trachealspangen-Ketten des Meerschweinchens (♂ und ♀, 430-600 g) im Organbad (5 ml, Krebs-Henseleit-Lösung mit Zusatz von Phentolamin (10^-5 mol/l, 37°C, Vorspannung der Organe 2 g, Begasung mit Carbogen) entwickeln nach etwa 20 bis 30 Minuten eine stabile, tonische Spontankontraktur. An diesen dauerkontrahierten Organen kann unter isometrischen Meßbedingungen durch Applikation der Prüfsubstanz in kumulativhalblogarithmisch ansteigender Konzentration (z.B. 1x10^-6 + 2x10^-6 + 7x10^-6 + 2x10^-5 usw. mol/l) eine Relaxation herbeigeführt werden, wobei nach jeder Einzeldosis der Testsubstanz eine konstante Relaxations-Antwort abgewartet wird, bevor die nächst höhere Konzentration appliziert wird. Ober einen Zeitraum von 20 bis 30 Minuten wird somit eine vollständige Dosis-Wirkungskurve der Testsubstanz erhalten. Die jeweilige Relaxation wird als Prozentbruchteil der durch Gabe von (-)Isoprenalin (10^-6 mol/1) maximal erreichbaren Relaxation ausgedrückt.
# In Tabelle 3 sind die ED50 (Dosis der halbmaximal möglichen Relaxation) und die relative Wirkungsstärke im Vergleich zu Theophyllin für erfindungsgemäße Verbindungen angegeben.
Compound,Hemmung der PDE in % [1],"Relative Wirkungsstärke (Theophyllin=1,00) [3]",EC50 [3] [µM],further results
"CCCCCCn1c(=O)n(C)c(=O)c2c[nH]nc21 [I, 7-n-Hexyl-4,5,6,7-tetrahydro-5-methyl-4,6-dioxo-2H-pyrazolo[3,4-d]-pyrimidin]","47,84%",–,–,–
"CCCCCCn1c(=O)n(C)c(=O)c2cn(C)nc21 [II, 7-n-Hexyl-4,5,6,7-tetrahydro-2,5-dimethyl-4,6-dioxo-2H-pyrazolo[3,4-d]-pyrimidin]","47,41%",–,–,–
"CCCCCCn1c(=O)n(C)c(=O)c2cn(CC)nc21 [III, 2-Ethyl-7-n-hexyl-4,5,6,7-tetrahydro-5-methyl-4,6-dioxo-2H-pyrazolo-[3,4-d]pyrimidin]","58,51%",–,–,Retinotrope Wirkung [%] ([2]; Dosis 1 mg/kg): +24%
"CCCCCCn1c(=O)n(C)c(=O)c2cn(CCC)nc21 [IV, 7-n-Hexyl-4,5,6,7-tetrahydro-5-methyl-4,6-dioxo-2-n-propyl-2H-pyrazolo-[3,4-d]pyrimidin]","63,04%",–,–,–
"CCCCCCn1c(=O)c2cn(CC)nc2n(C)c1=O [IX, 2-Ethyl-5-n-hexyl-4,5,6,7-tetrahydro-7-methyl-4,6-dioxo-2H-pyrazolo-[3,4-d]pyrimidin]","71,52%","3,4",38,Retinotrope Wirkung [%] ([2]; Dosis 1 mg/kg): +12%
"CC(=O)CCCCn1c(=O)c2c(ncn2C)n(C)c1=O [Pentoxifyllin, reference compound]",–,–,–,"Retinotrope Wirkung [%] ([2]; Dosis 6,25 mg/kg): 0%; retinotrope Wirkung (in words) [2]: noch keine retinotrope Wirkung"
"Cn1c(=O)c2[nH]cnc2n(C)c1=O [Theophyllin, reference compound]","37,13%","1,00",130,Retinotrope Wirkung [%] ([2]; Dosis 10 mg/kg): 0%; retinotrope Wirkung (in words) [2]: noch keine retinotrope Wirkung
"CCCCCCn1c(=O)n(C)c(=O)c2cn(CCCC)nc21 [V, 2-n-Butyl-7-n-hexyl-4,5,6,7-tetrahydro-5-methyl-4,6-dioxo-2H-pyra-zolo-[3,4-d]pyrimidin]","70,86%","1,8",62,–
"CCCCCCn1cc2c(=O)n(C)c(=O)n(CCCCCC)c2n1 [VI, 2,7-Di-n-hexyl-4,5,6,7-tetrahydro-5-methyl-4,6-dioxo-2H-pyrazolo[3,4-d]-pyrimidin]","37,30%",–,–,–
"CCCCCCn1c(=O)c2cn[nH]c2n(C)c1=O [VII, 5-n-Hexyl-4,5,6,7-tetrahydro-7-methyl-4,6-dioxo-1H-pyrazolo[3,4-d]-pyrimidin]","52,43%",–,–,–
"CCCCCCn1c(=O)c2cn(C)nc2n(C)c1=O [VIII, 5-n-Hexyl-4,5,6,7-tetrahydro-2,7-dimethyl-4,6-dioxo-2H-pyrazolo-[3,4-d]pyrimidin]","42,04%",–,–,–
"CCCCCCn1c(=O)c2cn(CCCC)nc2n(C)c1=O [X, 2-n-Butyl-5-n-hexyl-4,5,6,7-tetrahydro-7-methyl-4,6-dioxo-2H-pyra-zolo[3,4-d]pyrimidin]","37,83%",–,–,–
"CCCCCCn1cc2c(=O)n(CCCCCC)c(=O)n(C)c2n1 [XI, 2,5-Di-n-hexyl-4,5,6,7-tetrahydro-7-methyl-4,6-dioxo-2H-pyrazolo-[3,4-d]pyrimidin]","18,35%",–,–,–
"CCCCCCn1c(=O)c2cn(C(=O)c3cc(OC)c(OC)c(OC)c3)nc2n(C)c1=O [XII, 5-n-Hexyl-4,5,6,7-tetrahydro-2-(3,4,5-trimethoxybenzoyl)-7-methyl-4,6-dioxo-2H-pyrazolo[3,4-d]pyrimidin]",–,"3,7",–,EC50 ([3]; Cavia porcellus): 350 µM; Retinotrope Wirkung [%] ([2]; Dosis 1 mg/kg): +40%
"CCCCCCn1c(=O)n(C)c(=O)c2cnn(C)c21 [XIII, 7-Hexyl-4,5,6,7-tetrahydro-1,5-dimethyl-4,6-dioxo-1H-pyrazolo-[3,4-d]pyrimidin]",–,"1,4",95,–
"COc1cc(C(=O)n2cc3c(=O)n(CC(C)C)c(=O)n(C)c3n2)cc(OC)c1OC [XVI, 5-i-Butyl-4,5,6,7-tetrahydro-2-(3,4,5-trimethoxybenzoyl)-7-methyl-4,6-dioxo-2H-pyrazolo[3,4-d]pyrimidin]",–,"1,7",75,–
"CCn1c(=O)n(CCCCC(C)=O)c(=O)c2cnn(C)c21 [XVII, 7-Ethyl-4,5,6,7-tetrahydro-1-methyl-4,6-dioxo-5'-(5-oxo-n-hexyl)-1H-pyrazolo[3,4-d]pyrimidin]",–,"2,0",66,Retinotrope Wirkung [%] ([2]; Dosis 2 mg/kg): +80%
"CC(C)Cn1c(=O)n(C)c(=O)c2cn(CCO)nc21 [XVIII, 7-j-Butyl-4,5,6,7-tetrahydro-2-(2-hydroxyethyl)-5-methyl-4,6-dioxo-2H-pyrazolo[3,4-d]pyrimidin]",–,"10,0",13,–
CC(C)Cn1c(=O)n(C)c(=O)c2c[nH]nc21 [XV],–,"7,6",17,–
